Assay results reported in patent US12018011B2, “Macrocyclic compounds and compositions, and methods of preparing and using the same” (Kura Oncology, Inc., priority 2021, dated 2024).

Target: T1, Recombinant human farnesyl transferase (FTase) (Homo sapiens, UniProt P49356)
T1 construct: purchased Crelux (Martinsried, Germany)
Assay: FTase fluorescence assay (farnesylation of dansyl-GCVLS peptide)
Assay type: biochemical
Conditions: recombinant human FTase 2.5 nM, Dansyl-GCVLS 85 nM, FPP 30 nM, 30° C., 50 minutes
Excerpt: T24/83 cell line was purchased from the European Collection of Authenticated Cell Cultures (Salisbury, UK). Recombinant human farnesyl transferase (FTase) and geranylgeranyl transferase type-1 (GGTase) were obtained from Crelux (Martinsried, Germany). Dansyl labelled GCVLS peptide was purchased from Bachem (Torrance, CA), and Dansyl labelled GCVLL peptide was purchased from Bio Synthesis (Lewisville, TX). Farnesyl Pyrophosphate (FPP) and Geranylgeranyl pyrophosphate (GGPP) were purchased from Cayman (Ann Arbor, MI).
Specific biochemical activity of the compounds disclosed herein as FTase inhibitors was determined by measuring the ability of the compounds to block the farnesylation by recombinant FTase of fluorescent (i.e., dansyl-labeled) test substrates derived from the CAAX box of farnesylated proteins, such as the peptide GCVLS.
The IC50 value of the compounds disclosed herein as inhibitors of Ftase and/or GGTase, was determined by measuring the concentration (provided in nM) necessary to achieve inhibition of enzyme activity by 50% (IC50). […] Compounds having a low IC50 value against FTase, for example an IC50 (FTase)<100 nM, such as an IC50 (FTase)<10 nM, are preferred. Compounds having a low IC50 value against FTase and a high IC50 value against GGTase, for example an IC50 (FTase)<100 nM, such as an IC50 (FTase)<10 nM, and an IC50 (GGTase)>100 nM, are potent and selective inhibitors of FTase, and are particularly preferred.
The inhibition activities of the compounds disclosed herein against Ftase and GGTase were measured in the respective fluorescence assays as follows:
For the FTase assay, recombinant human FTase (2.5 nM), Dansyl labelled GCVLS peptide (85 nM), FPP (30 nM) and inhibitor were mixed in assay buffer (50 mM Tris, pH 7.5, 10 mM magnesium chloride, 10 μM zinc chloride, 0.08% CHAPS, 5 mM dithiothreitol) and incubated in a total volume of 20 μL at 30° C. for 50 minutes.
For both the FTase assay and GGTase assay, fluorescence intensity was detected (excitation at 340 nm and emission at 486 nm) using EnVision (PerkinElmer; Waltham, MA), IC50 determinations were performed using a sigmoidal dose-response model with Xlfit software (IDBS, Inc.; Boston, MA), and tipifarnib was used as a positive control. All the assay plates for each assay passed the QC criteria (S/B, Z factor).

IC50, ≤ 10 nM:
Cn1cncc1C1(N)c2ccc(Br)c(c2)COc2cccc(c2)-c2nc(N)nc3ccc1cc23 (stereo not drawn) [Compound 82, 4^4-bromo-3-(1-methyl-1H-imidazol-5-yl)-6-oxa-2(4,6)-quinazolina-1,4(1,3)-dibenzenacyclohexaphane-2^2,3-diamine]
[2H]C([2H])([2H])n1cncc1[C@@]1(N)c2ccc(C#N)c(c2)COc2cccc(c2)-c2cc(C#N)nc3ccc1cc23 [(S)-70, (S)-3-amino-3-(1-(methyl-d3)-1H-imidazol-5-yl)-6-oxa-2(4,6)-quinolina-1,4(1,3)-dibenzenacyclohexaphane-2^2 4^4-dicarbonitrile]
Cn1cncc1C1(O)c2ccc(C#N)c(c2)COc2cccc(c2)-c2cc(=O)[nH]c3ccc1cc23 (stereo not drawn) [Compound 54, 3-hydroxy-3-(1-methyl-1H-imidazol-5-yl)-2^2-oxo-2^1,2^2-dihydro-6-oxa-2(4,6)-quinolina-1,4(1,3)-dibenzenacyclohexaphane-4^4-carbonitrile]
COc1cc2c3cc(cnc3c1)C(O)(c1cncn1C)c1ccc(C#N)c(c1)COc1cccc-2c1 (stereo not drawn) [Compound 88, 3-hydroxy-2^7-methoxy-3-(1-methyl-1H-imidazol-5-yl)-6-oxa-2(5,3)-quinolina-1,4(1,3)-dibenzenacyclohexaphane-4^4-carbonitrile]

IC50, 10 to 100 nM:
Cn1cncc1C1(O)c2cccc(c2)CCc2cccc(c2)-c2cc(=O)[nH]c3ccc1cc23 (stereo not drawn) [Compound 1, 3-hydroxy-3-(1-methyl-1H-imidazol-5-yl)-2^1,2^2-dihydro-2(4,6)-quinolina-1,4(1,3)-dibenzenacyclohexaphan-2^2-one]
Cc1cn([C@@H]2c3ccc(C#N)c(c3)COc3cccc(c3)-c3cc(C#N)nc4ccc2cc34)cn1 [(S)-90, (S)-3-(4-methyl-1H-imidazol-1-yl)-6-oxa-2(4,6)-quinolina-1,4(1,3)-dibenzenacyclohexaphane-2^2,4^4-dicarbonitrile]
Cn1cncc1C1(O)c2ccc(Br)c(c2)COc2cccc(c2)-c2nccc3ccc1cc23 (stereo not drawn) [Compound 84, 4^4-bromo-3-(1-methyl-1H-imidazol-5-yl)-6-oxa-2(1,7)-isoquinolina-1,4(1,3)-dibenzenacyclohexaphan-3-ol]
[2H]C([2H])([2H])n1cncc1[C@]1(O)c2ccc(C#N)c(c2)COc2cccc(c2)-c2cc(C#N)nc3ccc1cc23 [(R)-078, (R)-3-hydroxy-3-(1-(methyl-d3)-1H-imidazol-5-yl)-6-oxa-2(4,6)-quinolina-1,4(1,3)-dibenzenacyclohexaphane-2^2 4^4-dicarbonitrile]
Cn1cncc1C1(N)c2ccc(Br)c(c2)COc2cccc(c2)-c2cc(Cl)nc3ccc1cc23 (stereo not drawn) [Compound 74, 4^4-bromo-2^2-chloro-3-(1-methyl-1H-imidazol-5-yl)-6-oxa-2(4,6)-quinolina-1,4(1,3)-dibenzenacyclohexaphan-3-amine]
[2H]C([2H])([2H])n1c(=O)cc2c3cc(ccc31)[C@H](n1cnc(C)n1)c1ccc(Cl)c(c1)COc1cccc-2c1 [(S)-080, (S)-4^4-chloro-2^1-(methyl-d3)-3-(3-methyl-1H-1,2,4-triazol-1-yl)-2^1,2^2-dihydro-6-oxa-2(4,6)-quinolina-1,4(1,3)-dibenzenacyclohexaphan-2^2-one]
Cn1cncc1C1(N)c2ccc(C#N)c(c2)COc2cccc(c2)-c2cc(N3CCNCC3)nc3ccc1cc23 (stereo not drawn) [Compound 67, 3-amino-3-(1-methyl-1H-imidazol-5-yl)-2^2-(piperazin-1-yl)-6-oxa-2(4,6)-quinolina-1,4(1,3)-dibenzenacyclohexaphane-4^4-carbonitrile]
[2H]C([2H])([2H])n1cncc1[C@]1(N)c2ccc(C#N)c(c2)COc2cccc(c2)-c2cc(C#N)nc3ccc1cc23 (racemic) [(R)-70, (R)-3-amino-3-(1-(methyl-d3)-1H-imidazol-5-yl)-6-oxa-2(4,6)-quinolina-1,4(1,3)-dibenzenacyclohexaphane-2^2,4^4-dicarbonitrile]
[2H]C([2H])([2H])n1c(=O)cc2c3cc(ccc31)[C@H](n1cnc(C)c1)c1ccc(Cl)c(c1)COc1cccc-2c1 [(S)-77, (S)-4^4-chloro-2^1-(methyl-d3)-3-(4-methyl-1H-imidazol-1-yl)-2^1,2^2-dihydro-6-oxa-2(4,6)-quinolina-1,4(1,3)-dibenzenacyclohexaphan-2^2-one]

IC50, > 100 nM:
Cn1cncc1[C@]1(N)c2ccc(Cl)c(c2)COc2cccc(c2)-c2cc(=O)n(C)c3ccc1cc23 (racemic) [(R)-46, (R)-3-amino-4^4-chloro-2^1-methyl-3-(1-methyl-1H-imidazol-5-yl)-2^1,2^2-dihydro-6-oxa-2(4,6)-quinolina-1,4(1,3)-dibenzenacyclohexaphan-2^2-one]
[2H]C([2H])([2H])n1c(=O)cc2c3cc(ccc31)[C@H](n1ncnc1C)c1ccc(Cl)c(c1)COc1cccc-2c1 [(S)-079, (S)-4^4-chloro-2^1-(methyl-d3)-3-(5-methyl-1H-1,2,4-triazol-1-yl)-2^1,2^2-dihydro-6-oxa-2(4,6)-quinolina-1,4(1,3)-dibenzenacyclohexaphan-2^2-one]
[2H]C([2H])([2H])n1c(=O)cc2c3cc(ccc31)[C@](N)(c1cncn1C)c1ccc(Cl)c(c1)COc1cccc-2c1 (racemic) [(R)-47, (R)-3-amino-4^4-chloro-2^1-(methyl-d3)-3-(1-methyl-1H-imidazol-5-yl)-2^1,2^2-dihydro-6-oxa-2(4,6)-quinolina-1,4(1,3)-dibenzenacyclohexaphan-2^2-one]
COc1cc2c3cc(cnc3c1)C(O)(c1cncn1C)c1ccc(Br)c(c1)COc1cccc-2c1 (stereo not drawn) [Compound 87, 4^4-bromo-2^7-methoxy-3-(1-methyl-1H-imidazol-5-yl)-6-oxa-2(5,3)-quinolina-1,4(1,3)-dibenzenacyclohexaphan-3-ol]
Cn1cncc1[C@]1(O)c2ccc(Cl)c(c2)OCCc2cccc(c2)-c2cc(=O)[nH]c3ccc1cc23 (racemic) [(R)-25, (R)-4^4-chloro-3-hydroxy-3-(1-methyl-1H-imidazol-5-yl)-2^1,2^2-dihydro-5-oxa-2(4,6)-quinolina-1,4(1,3)-dibenzenacycloheptaphan-2^2-one]
COc1cc2c3cc(ccc3n1)C(O)(c1cncn1C)c1cccc(c1)OCc1cccc-2c1 (stereo not drawn) [Compound 10, 2^2-methoxy-3-(1-methyl-1H-imidazol-5-yl)-5-oxa-2(4,6)-quinolina-1,4(1,3)-dibenzenacyclohexaphan-3-ol]
Cn1cnnc1[C@]1(N)c2ccc(Cl)c(c2)OCCc2cccc(c2)-c2cc(=O)n(C3CC3)c3ccc1cc23 (racemic) [(R)-35, (R)-3-amino-4^4-chloro-2^1-cyclopropyl-3-(4-methyl-4H-1,2,4-triazol-3-yl)-2^1,2^2-dihydro-5-oxa-2(4,6)-quinolina-1,4(1,3)-dibenzenacycloheptaphan-2^2-one]
Cn1cncc1[C@]1(O)c2ccc(C#N)c(c2)CCc2cccc(c2)-c2cc(=O)n(C)c3ccc1cc23 (racemic) [(S)-6, (S)-3-hydroxy-2^1-methyl-3-(1-methyl-1H-imidazol-5-yl)-2^2-oxo-2^1,2^2-dihydro-2(4,6)-quinolina-1,4(1,3)-dibenzenacyclohexaphane-4^4-carbonitrile]
Cn1cncc1[C@]1(N)c2ccc(Cl)c(c2)OCCc2cccc(c2)-c2cc(=O)n(C)c3ccc1cc23 (racemic) [(R)-27, (R)-3-amino-4^4-chloro-2^1-methyl-3-(1-methyl-1H-imidazol-5-yl)-2^1,2^2-dihydro-5-oxa-2(4,6)-quinolina-1,4(1,3)-dibenzenacycloheptaphan-2^2-one]
[2H]C([2H])([2H])n1c(=O)cc2c3cc(ccc31)[C@](N)(c1cncn1C)c1ccc(C#N)c(c1)CCc1cccc-2c1 (racemic) [(S)-8, (S)-3-amino-2^1-(methyl-d3)-3-(1-methyl-1H-imidazol-5-yl)-22-oxo-2^1,2^2-dihydro-2(4,6)-quinolina-1,4(1,3)-dibenzenacyclohexaphane-4^4-carbonitrile]
Cn1cncc1C1(N)c2ccc(Br)c(c2)COc2cccc(c2)-c2cc(OC3COC3)nc3ccc1cc23 (stereo not drawn) [Compound 75, 4^4-bromo-3-(1-methyl-1H-imidazol-5-yl)-2^2-(oxetan-3-yloxy)-6-oxa-2(4,6)-quinolina-1,4(1,3)-dibenzenacyclohexaphan-3-amine]
